Patent US20170253562A1, “Nampt Inhibitors” (AbbVie Inc., priority 2011, published 2017)

target: recombinant, human, C-terminally-His tagged NAMPT (Homo sapiens, UniProt P43490); experiment: Time-Resolved Fluorescence Resonance Energy Transfer (TR-FRET) binding assay of NAMPT; settings: 6.8 nM NAMPT, 200 nM probe (Oregon Green 488-conjugated APO866), 2-3 hours
Protocol: Time-Resolved Fluorescence Resonance Energy Transfer (TR-FRET) Binding Assay of NAMPT
Plates were read with Envision (Laser Lantha low volume protocol) after 2 to 3 hours.

recombinant, human, C-terminally-His tagged NAMPT, sequence (P43490 whole entry): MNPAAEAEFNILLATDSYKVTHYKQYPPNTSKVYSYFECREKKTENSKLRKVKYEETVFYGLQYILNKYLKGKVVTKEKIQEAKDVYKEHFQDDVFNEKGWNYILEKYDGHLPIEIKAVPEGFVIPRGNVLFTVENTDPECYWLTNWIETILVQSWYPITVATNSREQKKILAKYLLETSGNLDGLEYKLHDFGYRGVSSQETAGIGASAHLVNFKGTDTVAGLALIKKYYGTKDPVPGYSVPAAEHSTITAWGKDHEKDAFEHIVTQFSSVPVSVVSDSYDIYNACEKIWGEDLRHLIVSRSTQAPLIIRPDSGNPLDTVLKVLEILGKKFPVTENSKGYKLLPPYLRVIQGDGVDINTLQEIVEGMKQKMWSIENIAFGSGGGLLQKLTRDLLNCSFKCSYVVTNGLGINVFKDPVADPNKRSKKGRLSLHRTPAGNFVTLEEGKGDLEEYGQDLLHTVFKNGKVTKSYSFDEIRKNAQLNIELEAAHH

| IC50 [µM] | SMILES |
| --- | --- |
| 0.648 | O=C(NCC1CC12CCNCC2)c1ccc(NC(=O)N2Cc3ccccc3C2)nn1 (stereo not shown) [Example 40, N-{6-[(6-azaspiro[2.5]oct-1-ylmethyl)carbamoyl]pyridazin-3-yl}-1,3-dihydro-2H-isoindole-2-carboxamide] |
| 0.344 | O=C(Nc1ccc(C(=O)N2CC3(CCCO3)C2)nn1)N1Cc2ccccc2C1 [Example 41, N-[6-(5-oxa-2-azaspiro[3.4]oct-2-ylcarbonyl)pyridazin-3-yl]-1,3-dihydro-2H-isoindole-2-carboxamide] |
| 1.97 | O=C(NCc1nnc2n1CCNC2)c1ccc(NC(=O)N2Cc3ccccc3C2)nn1 [Example 42, N-{6-[(5,6,7,8-tetrahydro[1,2,4]triazolo[4,3-a]pyrazin-3-ylmethyl)carbamoyl]pyridazin-3-yl}-1,3-dihydro-2H-isoindole-2-carboxamide] |
| 2.88 | O=C(NCC1(F)CCNCC1)c1ccc(NC(=O)N2Cc3ccccc3C2)nn1 [Example 43, N-(6-{[(4-fluoropiperidin-4-yl)methyl]carbamoyl}pyridazin-3-yl)-1,3-dihydro-2H-isoindole-2-carboxamide] |
| 10 | O=C(Nc1ccc(C(=O)N2CC3(CNC3)C2)nn1)N1Cc2ccccc2C1 [Example 44, N-[6-(2,6-diazaspiro[3.3]hept-2-ylcarbonyl)pyridazin-3-yl]-1,3-dihydro-2H-isoindole-2-carboxamide] |
| 2.14 | O=C(NCC1CC2(CNC2)CO1)c1ccc(NC(=O)N2Cc3ccccc3C2)nn1 (stereo not shown) [Example 45, N-{6-[(6-oxa-2-azaspiro[3.4]oct-7-ylmethyl)carbamoyl]pyridazin-3-yl}-1,3-dihydro-2H-isoindole-2-carboxamide] |
| 0.261 | O=C(Nc1ccc(C(=O)N2CC3(CCCCO3)C2)nn1)N1Cc2ccccc2C1 [Example 46, N-[6-(5-oxa-2-azaspiro[3.5]non-2-ylcarbonyl)pyridazin-3-yl]-1,3-dihydro-2H-isoindole-2-carboxamide] |
| 5.85 | O=C(Nc1ccc(C(=O)N2CCC3(CCNCC3)C2C(F)(F)F)nn1)N1Cc2ccccc2C1 (stereo not shown) [Example 47, N-(6-{[1-(trifluoromethyl)-2,8-diazaspiro[4.5]dec-2-yl]carbonyl}pyridazin-3-yl)-1,3-dihydro-2H-isoindole-2-carboxamide] |
| 0.0689 | O=C(NCC1CC2(CCNCC2)C1)c1ccc(NC(=O)N2Cc3ccccc3C2)nn1 [Example 48, N-{6-[(7-azaspiro[3.5]non-2-ylmethyl)carbamoyl]pyridazin-3-yl}-1,3-dihydro-2H-isoindole-2-carboxamide] |
| 4.7 | O=C(NCc1nnn2c1CNCCC2)c1ccc(NC(=O)N2Cc3ccccc3C2)nn1 [Example 49, N-{6-[(5,6,7,8-tetrahydro-4H-[1,2,3]triazolo[1,5-a][1,4]diazepin-3-ylmethyl)carbamoyl]pyridazin-3-yl}-1,3-dihydro-2H-isoindole-2-carboxamide] |
